From US20040220249A1, “Prevention of surgical adhesions using selective COX-2 inhibitors” (Children's Medical Center Corporation, priority 2003, published 2004)

Experiments:
[1] = tested on: intra-abdominal adhesion formation; assay: Intra-abdominal adhesion model (laparotomy, cecal abrasion, silicone patch), adhesion score; type: in vivo, mice (C57BL/6); conditions: for intra-abdominal adhesion score (total, 0-16): 10 days after surgery, oral treatment for 10 days from day of surgery, mean +/- SEM, control 13.6+/-0.49; for decrease of intra-abdominal adhesion formation: FIG. 2, versus control mice; for intra-abdominal adhesion score (total, 0-16), durability: treated for 10 days, observed an additional 25 days before sacrifice (day 35), control 13.4+/-1.0
Experimental: Seven to eight week-old male C57BL/6 mice (Jackson Laboratories, Bar Harbor, Me.) were housed five animals to a cage in a barrier room. Mice were acclimated to their environment for at least 72 hours prior to the initiation of each experiment and allowed food and water ad libitum. Animal protocols complied with the NIH Animal Research Advisory Committee guidelines and were approved by the Children's Hospital Institutional Animal Care and Use Committee. A standard adhesion model was performed as previously described (Chiang 2000). Specifically, a 5.0 mm×5.0 mm square piece of sterile silicone (Dow Corning, Midland, Mich.) was secured intra-abdominally to the right abdominal wall, lateral to the epigastric vessels, with two 7-0 proline sutures under isoflurane anesthesia. The cecum then was gently rubbed with two cotton swabs to promote adhesion formation.
After recovering from anesthesia, groups of mice were treated with either oral methylcellulose alone (100 μl, control) or an experimental drug mixed in 100 μl methylcellulose beginning on the day of surgery for 10 days. […] Mice treated with COX-2 selective inhibitors received either celecoxib (68 mg/kg orally twice a day) or rofecoxib (40 mg/kg orally once a day) (Laudanno 2001).
Ten and 35 days after surgery, mice were euthanized and adhesion formation over the silicone patch was measured by two blinded individuals based on a previously described scoring system (Chiang S, et al. J Ped Surg. 2000, 35, 189-196). The tenacity, type, and extent of adhesions to the patch, as well as the extent of adhesions to the cecum were graded on a scale of 0 to 4. The total adhesion score was the sum of the four individual scores (see table 1, below). A minimum score was 0 and the maximum score was 16. Tenacity was rated as none (0), adhesions fell apart (1), lysed with traction (2), lysed with blunt dissection (3), lysed with sharp dissection (4). Type was scored as none (0), filmy (1), mildly dense (2), moderately dense (3), very dense (4). Extent was measured as the percent of the patch covered by adhesion: 0% (0), <25% (1), 25-50% (2), 50-75% (3), >75% (4). Cecal adhesions were graded as none (0), adhesions fell apart (1), lysed with traction (2), lysed with blunt dissection (3), lysed with sharp dissection (4).

[2] = tested on: endothelium (CD31/PECAM-1) of granulation tissue; assay: Microvessel density of granulation tissue surrounding the silicone patch (CD31 immunostaining, image analysis); type: in vivo, mice (C57BL/6); conditions: day 10; CD31-stained area as proportion of total area; mean ± SEM; control 6.4±0.6
Experimental: Silicone patches and abdominal wall were fixed at 4 degrees Celsius in 10% formalin overnight and washed with phosphate buffered saline. The specimens were then embedded in paraffin and 5 micron sections were cut. Endothelial cells were identified by antibody staining against the endothelial cell surface antigen CD31 (PECAM-1) and a diaminobenzidine chromogen (BD Biosciences Pharmingen, San Diego, Calif.). After deparaffinization and rehydration, sections were incubated with proteinase K (Roche, Basel, Switzerland) for 30 min at 37° C. Non-specific binding sites were blocked for 30 min at room temperature with TNB blocking buffer (NEN Life Sciences, Boston, Mass.). Primary CD31 antiserum (Pharmingen) was added to the sections overnight at 4° C. Slides were washed twice with phosphate buffered saline and secondary goat anti-mouse IgG antibody (Vector Laboratories, Burlingame, Calif.) was then added for 30 min at room temperature. After again washing twice with PBS the slides were incubated with streptavidin alkaline phosphatase solution (1:100) (Perkin-Elmer Life Sciences, Boston, Mass.) for 30 min at room temperature followed by biotinyl tyramide amplification dilutent (1:50) (Perkin-Elmer Life Sciences) for 10 min. After repeat incubation with alkaline phosphatase solution (1:100), for 30 min at room temperature, the chromagen, Vector Novar substrate kit (Vector Laboratories) was added. Slides were lightly counterstained with hematoxylin for imaging.
Sections were taken from the abdominal wall, patch, and lesions at sacrifice on day 10. To quantitate vessel density, CD31 immunostained sections underwent digital image analysis using a Nikon Eclipse TE300 inverting photomicroscope with an attached Spot RT (Diagnostic Instruments Inc.) video camera linked to a personal computer. Images were imported directly to the image analysis program IP Lab (Scanalytics Inc., Fairfax, Va.). Sequential images were grabbed at 200× for the […] sections without overlapping. To calculate the volume fraction of stained regions, a color threshold was chosen for each image that distinguished between the stained areas and background. The proportion of the selected color was calculated as a percentage of total area and used as a measure of vessel density. Sections from 3 different mice for each of the study groups were examined and vascularization was scanned and quantified in 5 representative fields per section.

adhesions = conditions: cited from earlier work

Compound	intra-abdominal adhesion score (total, 0-16) [1]	decrease of intra-abdominal adhesion formation [1]	intra-abdominal adhesion score (total, 0-16), durability [1]	microvessel density of granulation tissue surrounding the silicone patch [2]	macroscopic adhesion formation over the silicone patch (photograph) ([1]; 10 days after laparotomy, cecal abrasions and silicone patch placement, FIG. 1)	side-effects (adhesions; literature)	inhibition of adhesions (adhesions; murine model (Chiang 2001))
Cc1ccc(-c2cc(C(F)(F)F)nn2-c2ccc(S(N)(=O)=O)cc2)cc1 [celecoxib]	1.36+/−0.5	74%	1.5+/−0.9	3.8±0.8			
CS(=O)(=O)c1ccc(C2=C(c3ccccc3)C(=O)OC2)cc1 [rofecoxib]	3.6+/−1.1	91%		7.9±0.6			
COc1ccc2cc([C@H](C)C(=O)O)ccc2c1 [naproxen]	8.4+/−2.2						
CC(=O)Oc1ccccc1C(=O)O [aspirin]	13.8+/−0.4	no effect	12.2+/−1.2	13.3±1.0	dense adhesion formation over the silicone patch		
COc1ccc2c(c1)c(CC(=O)O)c(C)n2C(=O)c1ccc(Cl)cc1 [indomethacin]	7.3+/−1.7			11.3±1.5			
CO[C@@H]1[C@H](OC(=O)NC(=O)CCl)CC[C@]2(CO2)[C@H]1[C@@]1(C)O[C@@H]1CC=C(C)C [TNP-470]						absence of healing of abdominal wounds	inhibit adhesions
CC(C)Cc1ccc(C(C)C(=O)O)cc1 (stereo not shown) [ibuprophen]	7.8+/−1.4			9.9±1.1			
